According to the NIST ThermoML archive (doi:10.1021/je0342320):
± gives the expanded uncertainty stated by the source.

Settings: Liquid, Vibrating tube method

COC(=O)OC [dimethyl carbonate]
mass density (283.15 K, 100 kPa): 1083.17 ± 0.63 kg/m3
mass density (283.15 K, 5000 kPa): 1087.33 ± 0.63 kg/m3
mass density (283.15 K, 10000 kPa): 1091.39 ± 0.63 kg/m3
mass density (283.15 K, 15000 kPa): 1095.34 ± 0.64 kg/m3
mass density (283.15 K, 20000 kPa): 1099.13 ± 0.65 kg/m3
mass density (283.15 K, 25000 kPa): 1102.79 ± 0.65 kg/m3
mass density (283.15 K, 30000 kPa): 1106.39 ± 0.66 kg/m3
mass density (283.15 K, 35000 kPa): 1109.85 ± 0.67 kg/m3
mass density (283.15 K, 40000 kPa): 1113.17 ± 0.68 kg/m3
mass density (288.15 K, 100 kPa): 1076.43 ± 0.62 kg/m3
mass density (288.15 K, 5000 kPa): 1080.8 ± 0.63 kg/m3
mass density (288.15 K, 10000 kPa): 1085.02 ± 0.63 kg/m3
mass density (288.15 K, 15000 kPa): 1089.07 ± 0.64 kg/m3
mass density (288.15 K, 20000 kPa): 1093 ± 0.64 kg/m3
mass density (288.15 K, 25000 kPa): 1096.79 ± 0.65 kg/m3
mass density (288.15 K, 30000 kPa): 1100.48 ± 0.65 kg/m3
mass density (288.15 K, 35000 kPa): 1104.03 ± 0.66 kg/m3
mass density (288.15 K, 40000 kPa): 1107.5 ± 0.67 kg/m3
mass density (293.15 K, 100 kPa): 1069.76 ± 0.62 kg/m3
mass density (293.15 K, 5000 kPa): 1074.22 ± 0.62 kg/m3
mass density (293.15 K, 10000 kPa): 1078.58 ± 0.63 kg/m3
mass density (293.15 K, 15000 kPa): 1082.76 ± 0.63 kg/m3
mass density (293.15 K, 20000 kPa): 1086.83 ± 0.64 kg/m3
mass density (293.15 K, 25000 kPa): 1090.73 ± 0.64 kg/m3
mass density (293.15 K, 30000 kPa): 1094.5 ± 0.65 kg/m3
mass density (293.15 K, 35000 kPa): 1098.19 ± 0.66 kg/m3
mass density (293.15 K, 40000 kPa): 1101.74 ± 0.67 kg/m3
mass density (298.15 K, 100 kPa): 1063.1 ± 0.62 kg/m3
mass density (298.15 K, 5000 kPa): 1067.7 ± 0.62 kg/m3
mass density (298.15 K, 10000 kPa): 1072.21 ± 0.62 kg/m3
mass density (298.15 K, 15000 kPa): 1076.52 ± 0.63 kg/m3
mass density (298.15 K, 20000 kPa): 1080.7 ± 0.63 kg/m3
mass density (298.15 K, 25000 kPa): 1084.74 ± 0.64 kg/m3
mass density (298.15 K, 30000 kPa): 1088.62 ± 0.65 kg/m3
mass density (298.15 K, 35000 kPa): 1092.39 ± 0.65 kg/m3
mass density (298.15 K, 40000 kPa): 1096.04 ± 0.66 kg/m3
mass density (303.15 K, 100 kPa): 1056.41 ± 0.61 kg/m3
mass density (303.15 K, 5000 kPa): 1061.17 ± 0.62 kg/m3
mass density (303.15 K, 10000 kPa): 1065.82 ± 0.62 kg/m3
mass density (303.15 K, 15000 kPa): 1070.29 ± 0.63 kg/m3
mass density (303.15 K, 20000 kPa): 1074.59 ± 0.63 kg/m3
mass density (303.15 K, 25000 kPa): 1078.74 ± 0.63 kg/m3
mass density (303.15 K, 30000 kPa): 1082.75 ± 0.64 kg/m3
mass density (303.15 K, 35000 kPa): 1086.6 ± 0.65 kg/m3
mass density (303.15 K, 40000 kPa): 1090.35 ± 0.65 kg/m3
mass density (308.15 K, 100 kPa): 1049.66 ± 0.61 kg/m3
mass density (308.15 K, 5000 kPa): 1054.59 ± 0.61 kg/m3
mass density (308.15 K, 10000 kPa): 1059.39 ± 0.62 kg/m3
mass density (308.15 K, 15000 kPa): 1064 ± 0.62 kg/m3
mass density (308.15 K, 20000 kPa): 1068.43 ± 0.63 kg/m3
mass density (308.15 K, 25000 kPa): 1072.65 ± 0.63 kg/m3
mass density (308.15 K, 30000 kPa): 1076.8 ± 0.64 kg/m3
mass density (308.15 K, 35000 kPa): 1080.78 ± 0.64 kg/m3
mass density (308.15 K, 40000 kPa): 1084.63 ± 0.65 kg/m3
mass density (313.15 K, 100 kPa): 1042.86 ± 0.61 kg/m3
mass density (313.15 K, 5000 kPa): 1047.94 ± 0.61 kg/m3
mass density (313.15 K, 10000 kPa): 1052.91 ± 0.61 kg/m3
mass density (313.15 K, 15000 kPa): 1057.67 ± 0.62 kg/m3
mass density (313.15 K, 20000 kPa): 1062.22 ± 0.62 kg/m3
mass density (313.15 K, 25000 kPa): 1066.6 ± 0.63 kg/m3
mass density (313.15 K, 30000 kPa): 1070.82 ± 0.63 kg/m3
mass density (313.15 K, 35000 kPa): 1074.93 ± 0.64 kg/m3
mass density (313.15 K, 40000 kPa): 1078.87 ± 0.64 kg/m3
mass density (318.15 K, 100 kPa): 1036.04 ± 0.6 kg/m3
mass density (318.15 K, 5000 kPa): 1041.3 ± 0.61 kg/m3
mass density (318.15 K, 10000 kPa): 1046.44 ± 0.61 kg/m3
mass density (318.15 K, 15000 kPa): 1051.36 ± 0.61 kg/m3
mass density (318.15 K, 20000 kPa): 1056.08 ± 0.62 kg/m3
mass density (318.15 K, 25000 kPa): 1060.6 ± 0.62 kg/m3
mass density (318.15 K, 30000 kPa): 1064.95 ± 0.63 kg/m3
mass density (318.15 K, 35000 kPa): 1069.15 ± 0.63 kg/m3
mass density (318.15 K, 40000 kPa): 1073.21 ± 0.64 kg/m3
mass density (323.15 K, 100 kPa): 1029.21 ± 0.6 kg/m3
mass density (323.15 K, 5000 kPa): 1034.63 ± 0.6 kg/m3
mass density (323.15 K, 10000 kPa): 1039.95 ± 0.61 kg/m3
mass density (323.15 K, 15000 kPa): 1045.04 ± 0.61 kg/m3
mass density (323.15 K, 20000 kPa): 1049.91 ± 0.61 kg/m3
mass density (323.15 K, 25000 kPa): 1054.58 ± 0.62 kg/m3
mass density (323.15 K, 30000 kPa): 1059.07 ± 0.62 kg/m3
mass density (323.15 K, 35000 kPa): 1063.39 ± 0.63 kg/m3
mass density (323.15 K, 40000 kPa): 1067.56 ± 0.63 kg/m3
mass density (328.15 K, 100 kPa): 1022.24 ± 0.6 kg/m3
mass density (328.15 K, 5000 kPa): 1027.92 ± 0.6 kg/m3
mass density (328.15 K, 10000 kPa): 1033.45 ± 0.6 kg/m3
mass density (328.15 K, 15000 kPa): 1038.69 ± 0.61 kg/m3
mass density (328.15 K, 20000 kPa): 1043.71 ± 0.61 kg/m3
mass density (328.15 K, 25000 kPa): 1048.53 ± 0.62 kg/m3
mass density (328.15 K, 30000 kPa): 1053.14 ± 0.62 kg/m3
mass density (328.15 K, 35000 kPa): 1057.57 ± 0.62 kg/m3
mass density (328.15 K, 40000 kPa): 1061.87 ± 0.63 kg/m3
